The first assay has as its target δ-opioid receptor (DOR) (Homo sapiens, UniProt P41143). It counts as binding.
Chain of κ-opioid receptor (KOR) (P41145 whole entry): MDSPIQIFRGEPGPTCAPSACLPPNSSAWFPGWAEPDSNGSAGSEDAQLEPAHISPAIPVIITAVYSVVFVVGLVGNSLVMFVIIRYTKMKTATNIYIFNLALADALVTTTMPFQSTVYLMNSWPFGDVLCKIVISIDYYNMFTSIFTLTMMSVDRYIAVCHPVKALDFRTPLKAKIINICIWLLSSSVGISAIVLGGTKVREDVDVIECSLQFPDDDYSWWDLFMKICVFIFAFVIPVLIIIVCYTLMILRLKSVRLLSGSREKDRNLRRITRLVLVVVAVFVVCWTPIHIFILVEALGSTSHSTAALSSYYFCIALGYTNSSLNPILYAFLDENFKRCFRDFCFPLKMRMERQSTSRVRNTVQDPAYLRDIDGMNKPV
Chain of δ-opioid receptor (DOR) (P41143 whole entry): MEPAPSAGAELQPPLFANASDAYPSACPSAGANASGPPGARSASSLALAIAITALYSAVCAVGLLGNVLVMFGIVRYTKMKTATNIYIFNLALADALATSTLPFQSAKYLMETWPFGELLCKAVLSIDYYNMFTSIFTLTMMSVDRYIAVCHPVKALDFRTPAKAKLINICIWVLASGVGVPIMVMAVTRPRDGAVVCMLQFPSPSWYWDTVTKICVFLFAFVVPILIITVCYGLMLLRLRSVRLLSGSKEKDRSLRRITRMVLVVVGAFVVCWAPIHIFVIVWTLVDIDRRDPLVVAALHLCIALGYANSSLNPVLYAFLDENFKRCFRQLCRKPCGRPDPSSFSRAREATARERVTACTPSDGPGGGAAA
In the case of `COC(=O)[C@@H]1C[C@H](OC(=O)/C=C\C(=O)O)C(=O)[C@H]2[C@@]1(C)CC[C@H]1C(=O)O[C@H](c3ccoc3)C[C@]21C` [Compound 13], the “Affinities Ki± SD DOR” value is “no affinity”.

The target of a further assay is μ-opioid receptor (MOR) (Homo sapiens, UniProt P35372). It counts as binding.
Chain of μ-opioid receptor (MOR) (P35372 whole entry, species assumed): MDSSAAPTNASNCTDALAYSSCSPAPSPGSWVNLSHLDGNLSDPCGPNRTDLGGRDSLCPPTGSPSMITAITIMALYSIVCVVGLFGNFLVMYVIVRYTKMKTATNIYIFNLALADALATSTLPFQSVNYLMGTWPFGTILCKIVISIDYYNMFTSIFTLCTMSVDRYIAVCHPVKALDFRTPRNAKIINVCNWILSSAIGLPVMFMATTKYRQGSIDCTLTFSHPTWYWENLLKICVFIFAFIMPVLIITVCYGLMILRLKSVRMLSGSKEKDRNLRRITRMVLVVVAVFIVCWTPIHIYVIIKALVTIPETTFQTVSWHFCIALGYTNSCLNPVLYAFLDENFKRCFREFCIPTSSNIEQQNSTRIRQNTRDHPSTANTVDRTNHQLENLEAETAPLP
In the case of `COC(=O)[C@@H]1C[C@H](OC(=O)/C=C\C(=O)O)C(=O)[C@H]2[C@@]1(C)CC[C@H]1C(=O)O[C@H](c3ccoc3)C[C@]21C` [Compound 13], the “Affinities Ki± SD MOR” value is “no affinity”.

A further assay concerns the target κ-opioid receptor (KOR) (Homo sapiens, UniProt P41145). It is filed as binding.
For `COC(=O)CCC(=O)O[C@H]1C[C@@H](C(=O)OC)[C@]2(C)CC[C@H]3C(=O)O[C@H](c4ccoc4)C[C@]3(C)[C@H]2C1=O` [Compound 7], the “Fold reduction of KOR affinity compared to 1” value (“Fold reduction of KOR affinity” below) stood at 6 fold, the “Selectivity DOR/KOR” value is on record as more than 277 and the “Selectivity MOR/KOR” value was more than 277.

Regarding `CCOC(=O)/C=C/C(=O)O[C@H]1C[C@@H](C(=O)OC)[C@]2(C)CC[C@H]3C(=O)O[C@H](c4ccoc4)C[C@]3(C)[C@H]2C1=O` [Compound 15], the “Selectivity DOR/KOR” value is listed as more than 23.

With `CCOC(=O)CC(=O)O[C@H]1C[C@@H](C(=O)OC)[C@]2(C)CC[C@H]3C(=O)O[C@H](c4ccoc4)C[C@]3(C)[C@H]2C1=O` [Compound 5], the “Fold reduction of KOR affinity” value was determined as 3 fold, the “Selectivity DOR/KOR” value was more than 476 and the “Selectivity MOR/KOR” value is more than 476.

As to `COC(=O)[C@@H]1C[C@H](OC(=O)CCCC(=O)O)C(=O)[C@H]2[C@@]1(C)CC[C@H]1C(=O)O[C@H](c3ccoc3)C[C@]21C` [Compound 12], the “Selectivity DOR/KOR” value is more than 38.

With `COC(=O)CCCC(=O)O[C@H]1C[C@@H](C(=O)OC)[C@]2(C)CC[C@H]3C(=O)O[C@H](c4ccoc4)C[C@]3(C)[C@H]2C1=O` [Compound 9], the “Fold reduction of KOR affinity” value was 49 fold and the “Selectivity DOR/KOR” value is more than 33.

On to `COC(=O)[C@@H]1C[C@H](OC(=O)CC(=O)OC(C)(C)C)C(=O)[C@H]2[C@@]1(C)CC[C@H]1C(=O)O[C@H](c3ccoc3)C[C@]21C` [Compound 6], for which the “Fold reduction of KOR affinity” value was found to be 24 fold, the “Selectivity DOR/KOR” value is reported as more than 67 and the “Selectivity MOR/KOR” value is more than 67.

With `COC(=O)/C=C/C(=O)O[C@H]1C[C@@H](C(=O)OC)[C@]2(C)CC[C@H]3C(=O)O[C@H](c4ccoc4)C[C@]3(C)[C@H]2C1=O` [Compound 14], the “Fold reduction of KOR affinity” value stood at 6 fold and the “Selectivity DOR/KOR” value is more than 256.

As to `COC(=O)[C@@H]1C[C@H](OC(=O)/C=C\C(=O)O)C(=O)[C@H]2[C@@]1(C)CC[C@H]1C(=O)O[C@H](c3ccoc3)C[C@]21C` [Compound 13], the “Affinities Ki± SD KOR” value is “no affinity”.

`COC(=O)CC(=O)O[C@H]1C[C@@H](C(=O)OC)[C@]2(C)CC[C@H]3C(=O)O[C@H](c4ccoc4)C[C@]3(C)[C@H]2C1=O` [Compound 4]: the “Selectivity MOR/KOR” value was more than 5000.

`COC(=O)CCCCC(=O)O[C@H]1C[C@@H](C(=O)OC)[C@]2(C)CC[C@H]3C(=O)O[C@H](c4ccoc4)C[C@]3(C)[C@H]2C1=O` [Compound 10]: the “Selectivity DOR/KOR” value is more than 17 and the “Selectivity MOR/KOR” value is given as more than 17.

As for `COC(=O)[C@@H]1C[C@H](OC(=O)c2ccccc2C(=O)O)C(=O)[C@H]2[C@@]1(C)CC[C@H]1C(=O)O[C@H](c3ccoc3)C[C@]21C` [Compound 16], the “Selectivity DOR/KOR” value is more than 4 and the “Selectivity MOR/KOR” value is given as more than 4.

As to `CCOC(=O)CCC(=O)O[C@H]1C[C@@H](C(=O)OC)[C@]2(C)CC[C@H]3C(=O)O[C@H](c4ccoc4)C[C@]3(C)[C@H]2C1=O` [Compound 8], the “Fold reduction of KOR affinity” value amounted to 70 fold, the “Selectivity DOR/KOR” value is more than 23 and the “Selectivity MOR/KOR” value is reported as more than 23.
